From US8071570B2, “Mixtures of polysaccharides derived from heparin, their preparation and pharmaceutical compositions containing them” (Aventis Pharma S.A., priority 2002, dated 2011)

What was measured:
[1] = system: activated factor X (factor Xa); assay: anti-Xa activity, amidolytic method on a chromogenic substrate; assay type: biochemical; conditions: isolated hexasaccharide
Method: The anti-Xa activity is measured by the amidolytic method on a chromogenic substrate described by Teien et al., Thromb. Res., 10, 399-410 (1977), with, as standard, the first international standard for low-molecular-weight heparins. See Barrowcliffe, T. W., A. D. Curtis, et al. (1985). “Standardization of Low Molecular Weight Heparins: A Collaborative Study.” Thrombosis and Haemostasis 54: 675-679; and Barrowcliffe, T. W. (1988). “An International Standard for Low Molecular Weight Heparin.” Thrombosis and Haemostasis 60:1-7.

[2] = biological target: ATIII (Homo sapiens, UniProt P01008)
Chain of ATIII (P01008 33-464, species assumed): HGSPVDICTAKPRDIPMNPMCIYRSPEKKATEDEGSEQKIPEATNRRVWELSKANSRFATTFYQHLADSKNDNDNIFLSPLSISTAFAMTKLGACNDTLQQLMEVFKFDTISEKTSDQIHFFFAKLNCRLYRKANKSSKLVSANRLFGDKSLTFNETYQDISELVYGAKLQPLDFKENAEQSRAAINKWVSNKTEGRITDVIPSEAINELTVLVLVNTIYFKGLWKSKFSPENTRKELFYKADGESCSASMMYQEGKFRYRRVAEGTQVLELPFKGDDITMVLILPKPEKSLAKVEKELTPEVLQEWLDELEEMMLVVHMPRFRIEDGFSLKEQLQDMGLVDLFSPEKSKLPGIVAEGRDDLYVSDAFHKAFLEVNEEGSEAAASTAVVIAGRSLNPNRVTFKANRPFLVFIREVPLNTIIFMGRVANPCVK

SMILES: CC(=O)N[C@H]1[C@@H](O[C@H]2[C@H](O)[C@@H](O)[C@H](O[C@H]3[C@H](OS(=O)(=O)O)[C@@H](NS(=O)(=O)O)[C@@H](O[C@H]4[C@H](O)[C@@H](OS(=O)(=O)O)[C@H](O[C@H]5[C@H](O)[C@@H](NS(=O)(=O)O)[C@@H](O)O[C@@H]5COS(=O)(=O)O)O[C@H]4C(=O)O)O[C@@H]3COS(=O)(=O)O)O[C@@H]2C(=O)O)O[C@H](COS(=O)(=O)O)[C@@H](O[C@@H]2OC(C(=O)O)=C[C@H](O)[C@H]2O)[C@@H]1O [hexasaccharide ΔIIa-IIs-Is]
- aXa activity [1]: greater than 740 U/mg
- affinity for ATIII [2]: high affinity
